# Measured values as given in patent US12583826B2, “[(1,5-diphenyl-1H-1,2,4-triazol-3-yl)oxy]acetic acid derivatives and salts thereof, crop protection compositions comprising them, methods for producing them and use thereof as safeners” (Bayer Aktiengesellschaft, priority 2019, dated 2026).
# How the values were obtained:
# Format in all cases: in vivo
# [1] = system: summer wheat (TRZAS; cv. Triso); experiment: Relative action (efficacy code): reduction of damage by mesosulfuron-methyl on summer wheat; parameters: key: 0: no reduction in damage (appearance corresponding to the herbicide control); 1: slight reduction in damage; 2: distinct reduction in damage; 3: significant reduction in damage; 4: complete reduction in damage (appearance corresponding to the untreated control); settings: then mesosulfuron-methyl 40-60 g/ha, visual, 9-13 days after application
# Protocol: 2.3 Relative Action of Selected Compounds of the Invention Using the Example of Reduction of Damage by Mesosulfuron-Methyl on Summer Wheat (TRZAS) The seeds of the crop plants to be treated are laid out in sandy loam in plastic pots (diameter ˜4 cm), covered with soil and grown in a greenhouse under good conditions for germination and growth. The trial plants were treated at the early leaf stage (BBCH10—BBCH12). In the course of this, the inventive compounds of the general formula (I) formulated in the form of wettable powders (WP) were sprayed onto the above-ground parts of the plants as an aqueous suspension with a water application rate corresponding to 800 l/ha with addition of wetting agent (e.g. 0.2% Genapol-LRO or 0.2% Mero) in the specified dose. This was followed by the application of the herbicide. For this purpose, mesosulfuron-methyl, formulated in the form of water-dispersible granules (WG), was sprayed onto the above-ground parts of the plants in the form of an aqueous dispersion with a water application rate corresponding to 800 l/ha with addition of wetting agent (e.g. 0.2% Genapol-LRO or 1 l/ha Biopower) in a dose of 40-60 g/ha. The dose of the herbicide was chosen here such that it causes visually apparent damage (min. 30%, max. 75%) compared to untreated crop plants at the evaluation time on a control group of crop plants without safener treatment that were included in the same trial. After application, the plants were cultivated under good growth conditions in a greenhouse. 9-13 days after application, the efficacy of the test compounds was assessed visually. For this purpose, the appearance of the plants treated with the test compound and herbicide was compared to the corresponding herbicide controls (without safener; with clearly visible damage) and the untreated controls (without damage). The damage-reducing effect of the test compounds was expressed here in graded efficacy codes according to the following scheme: • 0: no reduction in damage (appearance corresponding to the herbicide control) • 1: slight reduction in damage • 2: distinct reduction in damage • 3: significant reduction in damage • 4: complete reduction in damage (appearance corresponding to the untreated control) The trials show clear efficacy of the substances of the invention with regard to the reduction in damage to the summer wheat crop plant (TRZAS; cv. Triso) caused by the herbicide mesosulfuron-methyl: […]
# [2] = system: summer barley (HORVS; cv. Montoya); experiment: Relative action (efficacy code): reduction of damage by mesosulfuron-methyl on summer barley; parameters: key: 0: no reduction in damage (appearance corresponding to the herbicide control); 1: slight reduction in damage; 2: distinct reduction in damage; 3: significant reduction in damage; 4: complete reduction in damage (appearance corresponding to the untreated control); settings: then mesosulfuron-methyl 40-60 g/ha, visual, 9-13 days after application
# Protocol: 2.4 Relative Action of Selected Compounds of the Invention Using the Example of Reduction of Damage by Mesosulfuron-Methyl on Summer Barley (HORVS) The seeds of the crop plants to be treated are laid out in sandy loam in plastic pots (diameter ˜4 cm), covered with soil and grown in a greenhouse under good conditions for germination and growth. The trial plants were treated at the early leaf stage (BBCH10—BBCH12). In the course of this, the inventive compounds of the general formula (I) formulated in the form of wettable powders (WP) were sprayed onto the above-ground parts of the plants as an aqueous suspension with a water application rate corresponding to 800 l/ha with addition of wetting agent (e.g. 0.2% Genapol-LRO or 0.2% Mero) in the specified dose. This was followed by the application of the herbicide. For this purpose, mesosulfuron-methyl, formulated in the form of water-dispersible granules (WG), was sprayed onto the above-ground parts of the plants in the form of an aqueous dispersion with a water application rate corresponding to 800 l/ha with addition of wetting agent (e.g. 0.2% Genapol-LRC) or 1 l/ha Biopower) in a dose of 40-60 g/ha. The dose of the herbicide was chosen here such that it causes visually apparent damage (min. 30%, max. 75%) compared to untreated crop plants at the evaluation time on a control group of crop plants without safener treatment that were included in the same trial. After application, the plants were cultivated under good growth conditions in a greenhouse. 9-13 days after application, the efficacy of the test compounds was assessed visually. For this purpose, the appearance of the plants treated with the test compound and herbicide was compared to the corresponding herbicide controls (without safener; with clearly visible damage) and the untreated controls (without damage). The damage-reducing effect of the test compounds was expressed here separately for 2 repeats in graded efficacy codes according to the following scheme: • 0: no reduction in damage (appearance corresponding to the herbicide control) • 1: slight reduction in damage • 2: distinct reduction in damage • 3: significant reduction in damage • 4: complete reduction in damage (appearance corresponding to the untreated control) The trials show clear efficacy of the substances of the invention with regard to the reduction in damage to the summer barley crop plant (HORVS; cv. Montoya) caused by the herbicide mesosulfuron-methyl: […]
# [3] = system: summer wheat (TRZAS; cv. Triso); experiment: Absolute action: reduction of damage by mesosulfuron-methyl on summer wheat, greenhouse post-emergence; settings: for Absolute reduction in herbicide damage (damage without safener minus damage with safener): mesosulfuron-methyl 20 g/ha; for Herbicide damage with compound of the formula (I): then mesosulfuron-methyl 20 g/ha, visual 0-100% scale, 14-21 days after application
# Protocol: (§1) 2.1 Absolute Action of Selected Compounds of the Invention Using the Example of Reduction of Damage by Mesosulfuron-Methyl on Summer Wheat (TRZAS) The seeds of the crop plants to be treated are laid out in sandy loam in wood fiber or plastic pots (diameter ˜4 cm), covered with soil and grow in a greenhouse under good conditions for germination and growth. The trial plants were treated at the early leaf stage (BBCH10—BBCH12). In the course of this, the inventive compounds of the general formula (I) formulated in the form of wettable powders (WP) were sprayed onto the above-ground parts of the plants as an aqueous suspension with a water application rate corresponding to 800 l/ha with addition of wetting agent (e.g. 0.2% agrotin) in the specified dose. This was followed by the application of the herbicide. For this purpose, mesosulfuron-methyl, formulated in the form of water-dispersible granules (WG), was sprayed onto the above-ground parts of the plants in the form of an aqueous dispersion with a water application rate corresponding to 800 l/ha with addition of wetting agent (e.g. 0.2% agrotin) in a dose of 20 g/ha. The dose of the herbicide was chosen here such that it causes visually apparent damage (min. 30%, max. 75%) compared to untreated crop plants at the evaluation time on a control group of crop plants without safener treatment that were included in the same trial. After application, the plants were cultivated under good growth conditions in a greenhouse. The damage was visually assessed 14-21 days after application. The damage effect was assessed visually on a scale of 0-100% by comparison with untreated control plants, and averaged over 2-3 repeats per treatment. Examples: • 0%=no noticeable effect compared to the untreated plant • 20%=the treated plant population has 20% damage compared to the untreated control population (e.g. growth height, leaf damage, etc.) • 100%=treated plants completely damaged/killed.
# [4] = system: summer barley (HORVS; cv. Montoya); experiment: Absolute action: reduction of damage by mesosulfuron-methyl on summer barley, greenhouse post-emergence; settings: for Absolute reduction in damage (difference): mesosulfuron-methyl 20 g/ha, damage without minus with safener; for Herbicide damage with compound of the formula (I) (%): then mesosulfuron-methyl 20 g/ha, visual 0-100% scale, 14-21 days after application
# Protocol: as §1, with “2.2 Absolute Action” for “2.1 Absolute Action”, “on Summer Barley (HORVS) The seeds” for “on Summer Wheat (TRZAS) The seeds”, “treated are aid out in” for “treated are laid out in”, “soil and grown in a” for “soil and grow in a”, “leaf stage (BBCE10-BBCH12). In the” for “leaf stage (BBCH10—BBCH12). In the”, “control population (e.g.: growth height,” for “control population (e.g. growth height,”
# [5] = safener dose 100 (unit not given)
# [6] = safener dose 500 (unit not given)
smiles,measurement,setting,value
CCOC(=O)CCOC(=O)COc1nc(-c2ccc(F)cc2F)n(-c2ccc(Cl)cc2F)n1 [I.69-49],Efficacy of the safener (efficacy code),[1]; [5],2
same,Efficacy of the safener (efficacy code),[2]; safener 100 g/ha,2
O=C(O)COc1nc(-c2c(F)cccc2F)n(-c2c(F)cccc2F)n1 [I.57-43],Efficacy of the safener (efficacy code),[1]; [6],2
same,Efficacy of the safener (efficacy code),[2]; safener 500 g/ha,2
COC(=O)COc1nc(-c2ccc(F)cc2F)n(-c2ccc(Cl)cc2F)n1 [I.40-49],Efficacy of the safener (efficacy code),[1]; [5],4
same,Efficacy of the safener (efficacy code),[1]; [6],4
same,Efficacy of the safener (efficacy code),[2]; safener 100 g/ha,4
same,Efficacy of the safener (efficacy code),[2]; safener 500 g/ha,4
O=C(O)COc1nc(-c2ccc(F)cc2F)n(-c2ccc(Cl)cc2F)n1 [I.42-49],Efficacy of the safener (efficacy code),[1]; [5],2
same,Efficacy of the safener (efficacy code),[1]; [6],2
same,Efficacy of the safener (efficacy code),[2]; safener 100 g/ha,2
same,Efficacy of the safener (efficacy code),[2]; safener 500 g/ha,3
O=C(O)COc1nc(-c2c(F)cccc2F)n(-c2ccc(Cl)cc2F)n1 [I.57-49],Efficacy of the safener (efficacy code),[2]; safener 100 g/ha,2
same,Efficacy of the safener (efficacy code),[2]; safener 500 g/ha,2
COCCOC(=O)COc1nc(-c2ccc(F)cc2F)n(-c2ccc(Cl)cc2F)n1 [I.67-49],Efficacy of the safener (efficacy code),[1]; [5],2
same,Efficacy of the safener (efficacy code),[1]; [6],2
same,Efficacy of the safener (efficacy code),[2]; safener 100 g/ha,2
same,Efficacy of the safener (efficacy code),[2]; safener 500 g/ha,2
"COC(=O)COc1nc(-c2ccc(F)cc2F)n(-c2ccc(Cl)cc2)n1 [I.40-7, Methyl {[1-(4-chlorophenyl)-5-(2,4-difluorophenyl)-1H-1,2,4-triazol-3-yl]oxy}acetate]",Efficacy of the safener (efficacy code),[1]; [5],4
same,Efficacy of the safener (efficacy code),[1]; [6],4
same,Efficacy of the safener (efficacy code),[2]; safener 100 g/ha,2
same,Efficacy of the safener (efficacy code),[2]; safener 500 g/ha,4
CCCCOC(=O)COc1nc(-c2ccc(F)cc2F)n(-c2ccc(Cl)cc2F)n1 [I.66-49],Efficacy of the safener (efficacy code),[1]; [5],2
same,Efficacy of the safener (efficacy code),[2]; safener 100 g/ha,2
CCOC(=O)COc1nc(-c2ccccc2F)n(-c2ccc(Cl)cc2F)n1 [I.5-49],Absolute reduction in herbicide damage (damage without safener minus damage with safener),[3]; safener 125 g a.i./ha,54%
same,Herbicide damage with compound of the formula (I),[3]; safener 125 g a.i./ha,13%
same,Absolute reduction in damage (difference),[4]; safener 125 g a.i./ha,50%
same,Herbicide damage with compound of the formula (I) (%),[4]; safener 125 g a.i./ha,23%
same,Absolute reduction in damage (difference),[4]; safener 500 g a.i./ha,56%
same,Herbicide damage with compound of the formula (I) (%),[4]; safener 500 g a.i./ha,17%
CCOC(=O)COc1nc(-c2ccc(F)cc2F)n(-c2ccc(Cl)cc2)n1 [I.41-7],Absolute reduction in herbicide damage (damage without safener minus damage with safener),[3]; safener 250 g/ha,23%
same,Herbicide damage with compound of the formula (I),[3]; safener 250 g/ha,20%
same,Absolute reduction in damage (difference),[4]; safener 1000 g a.i./ha,40%
same,Herbicide damage with compound of the formula (I) (%),[4]; safener 1000 g a.i./ha,20%
"COC(=O)COc1nc(-c2ccc(Cl)cc2Cl)n(-c2ccc(Cl)cc2F)n1 [I.43-49, Methyl {[1-(4-chloro-2-fluorophenyl)-5-(2,4-dichlorophenyl)-1H-1,2,4-triazol-3-yl]oxy}acetate]",Absolute reduction in herbicide damage (damage without safener minus damage with safener),[3]; safener 125 g a.i./ha,36%
same,Herbicide damage with compound of the formula (I),[3]; safener 125 g a.i./ha,27%
same,Absolute reduction in herbicide damage (damage without safener minus damage with safener),[3]; safener 500 g a.i./ha,40%
same,Herbicide damage with compound of the formula (I),[3]; safener 500 g a.i./ha,23%
same,Absolute reduction in damage (difference),[4]; safener 125 g a.i./ha,30%
same,Herbicide damage with compound of the formula (I) (%),[4]; safener 125 g a.i./ha,33%
same,Absolute reduction in damage (difference),[4]; safener 500 g a.i./ha,33%
same,Herbicide damage with compound of the formula (I) (%),[4]; safener 500 g a.i./ha,30%
O=C(O)COc1nc(-c2ccc(Cl)cc2Cl)n(-c2ccc(F)cc2F)n1 [I.45-38],Absolute reduction in herbicide damage (damage without safener minus damage with safener),[3]; safener 125 g a.i./ha,33%
same,Herbicide damage with compound of the formula (I),[3]; safener 125 g a.i./ha,30%
same,Absolute reduction in herbicide damage (damage without safener minus damage with safener),[3]; safener 500 g a.i./ha,43%
same,Herbicide damage with compound of the formula (I),[3]; safener 500 g a.i./ha,20%
same,Absolute reduction in damage (difference),[4]; safener 125 g a.i./ha,30%
same,Herbicide damage with compound of the formula (I) (%),[4]; safener 125 g a.i./ha,30%
same,Absolute reduction in damage (difference),[4]; safener 500 g a.i./ha,40%
same,Herbicide damage with compound of the formula (I) (%),[4]; safener 500 g a.i./ha,20%
